Here are results for 1 compound from PMC8524809 (Molecular Therapy, 2021).

Assay [1] relates to SARS-CoV-2 S pseudovirion alpha variant. Format: cell-based. The conditions noted are these: similar to the WT.
In assay [2] the test system is SARS-CoV-2 S pseudovirion beta variant. Format: cell-based. As to conditions: similar to the WT.

SMILES strings stand for the structures.

As for `CC(C)(O)c1ccccc1CC[C@@H](SCC1(CC(=O)O)CC1)c1cccc(/C=C/c2ccc3ccc(Cl)cc3n2)c1` [montelukast], the “Inhibition of pseudovirus entry” value in assay [1] and in assay [2] was “increase in a dose-dependent manner” each time.
